Measurements as given in patent US11040028B2, “Penicinotam derivative, preparation method and use thereof” (OCEAN UNIVERSITY OF CHINA, priority 2017, dated 2021).

Legend:
Type in all cases: cell-based
[1] = system: human dermal fibroblasts CCC-ESF-1; assay: Anti-fibrosis activity test: inhibition of proliferation of human dermal fibroblasts CCC-ESF-1 (CCK-8); conditions: Fibroblast; human dermal fibroblasts CCC-ESF-1, CCK-8, 48 hours
Summary of the method: (§1)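 Read-out: absorbance at 450 nm after 2 h with CCK-8, following 48 h of compound exposure of adhered cells (2×10^4 cells/mL, 24 h attachment, 37° C, 5% CO2). Proliferation inhibition was taken relative to the blank control, and IC50 values were calculated from it.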

[2] = system: human fibrosarcoma cells HT-1080; assay: Anti-fibrosis activity test: inhibition of proliferation of human fibrosarcoma cells HT-1080 (CCK-8); conditions: Homo sapiens, HT-1080, 48 h, human fibrosarcoma cells HT-1080, CCK-8, 48 hours
Summary of the method: as §1

[3] = system: cardiac fibroblast RAT-iCell-C002; assay: Anti-fibrosis activity test: inhibition of proliferation of cardiac fibroblast RAT-iCell-C002 (CCK-8); conditions: Cardiac fibroblast, 48 h, cardiac fibroblast RAT-iCell-C002, CCK-8, 48 hours
Summary of the method: as §1

NF-κB = assay: Immunological activity test: inhibition of NF-κB activity; conditions: initial concentration of 30 μM; a/b isomers given as first/second symbol; read-out: IC50 (μM), inhibitory activity against NF-κB
Summary of the method: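 IC50 values come from further analysis of the data after an initial test at a single 30 μM concentration. Parthenolide served as the reference inhibitor.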

[4] = system: human lung fibroblasts HFL1; assay: Anti-fibrosis activity test: inhibition of proliferation of human lung fibroblasts HFL1 (CCK-8); conditions: Homo sapiens, HFL1, 48 h, human lung fibroblasts HFL1, CCK-8, 48 hours
Summary of the method: as §1

BHK-21 cells = assay: Anti-fibrosis activity test: inhibition of BHK-21 cell proliferation (CCK-8); conditions: Mesocricetus auratus, BHK-21, 48 h, CCK-8, 48 hours after administration
Summary of the method: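 Proliferation of BHK-21 cells is measured by CCK-8 at 450 nm following 48 h compound exposure at several concentrations. Inhibition is expressed relative to blank control and IC50 is computed from it.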

[5] = system: human hepatic stellate cells LX-2; assay: Anti-fibrosis activity test: inhibition of proliferation of human hepatic stellate cells LX-2 (CCK-8); conditions: Homo sapiens, 48 h, human hepatic stellate cells LX-2, CCK-8, 48 hours
Summary of the method: as §1

[6] = system: mouse macrophages (RAW264.7); assay: Lipopolysaccharide-induced NO secretion in macrophages (Griess); conditions: Mus musculus, RAW264.7, 24 h, RAW264.7, LPS 1 μg/ml, a/b isomers given as first/second symbol, read-out: IC50 (μM), inhibition of lipopolysaccharide-induced NO secretion in macrophages
Summary of the method: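 Absorbance at 548 nm after Griess reagent addition to culture supernatant gave NO content; inhibition rate was derived relative to blank control. Cells were mouse RAW264.7 macrophages exposed to compounds and 1 μg/ml LPS for 24 hours.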

[7] = system: human embryonic lung fibroblast IMR-90; assay: Anti-fibrosis activity test: inhibition of proliferation of human embryonic lung fibroblast IMR-90 (CCK-8); conditions: human embryonic lung fibroblast IMR-90, CCK-8, 48 hours
Summary of the method: as §1

Structure (SMILES) | IC50 [2] [mM] | IC50 (NF-κB) [µM] | IC50 [6] [µM] | IC50 [1] [mM] | IC50 [3] [mM] | IC50 [4] [mM] | IC50 (BHK-21 cells) [mM] | IC50 [5] [mM] | IC50 [7] [mM]
COc1c2c(nc3ccc(F)cc13)-c1cccn1C2=O [Compound 157b, 7-fluoro-9-methoxy-10H-pyrrolizino[1,2-b]quinolin-10-one] | 0.05 to 5 | 0.1 to 1 | 1 to 10 | 0.05 to 5 | 0.05 to 5 | 0.05 to 5 | 0.05 to 5 | 0.05 to 5 | 0.05 to 5
N#Cc1ccc2nc3c(c(O)c2c1)C(=O)n1cccc1-3 [Compound 222b, 9-hydroxy-10-oxo-10H-pyrrolizino[1,2-b]quinoline-7-carbonitrile] | 0.05 to 5 | 1 to 10 | 1 to 10 | 0.05 to 5 | 0.05 to 5 | 0.05 to 5 | 0.05 to 5 | 0.05 to 5 | 0.05 to 5
O=C1c2c(nc3ccc(Br)cc3c2O)-c2cccn21 [Compound 246b, 7-bromo-9-hydroxy-10H-pyrrolizino[1,2-b]quinolin-10-one] | 0.05 to 5 | 1 to 10 | 1 to 10 | 0.05 to 5 | 0.05 to 5 | 0.05 to 5 | 0.05 to 5 | 0.05 to 5 | 0.05 to 5
O=C(O)COc1c2c(nc3ccc(C(F)(F)F)cc13)-c1cccn1C2=O [Compound 279b, 2-((10-Oxo-7-(trifluoromethyl)-10H-pyrrolizino[1,2-b]quinolin-9-yl)oxy)acetic acid] | 0.05 to 5 | 1 to 10 | 0.1 to 1 | 0.05 to 5 | 0.05 to 5 | 0.05 to 5 | 0.05 to 5 | 0.05 to 5 | 0.05 to 5
O=C1c2c([nH]c3ccc(C(F)(F)F)cc3c2=O)-c2cccn21 [Compound 282a, 7-(Trifluoromethyl)-9H-pyrrolizino[1,2-b]quinoline-9,10(4H)-dione] | 0.05 to 5 | 1 to 10 | 1 to 10 | 0.05 to 5 | 0.05 to 5 | 0.05 to 5 | 0.05 to 5 | 0.05 to 5 | 0.05 to 5
O=C1c2c(nc3ccc(C(F)(F)F)cc3c2O)-c2cccn21 [Compound 282b, 9-hydroxy-7-(trifluoromethyl)-10H-pyrrolizino[1,2-b]quinolin-10-one] | 0.05 to 5 | 1 to 10 | 10 to 50 | 0.05 to 5 | 0.05 to 5 | 0.05 to 5 | 0.05 to 5 | 0.05 to 5 | 0.05 to 5
O=C1c2c([nH]c3ccc(OC(F)(F)F)cc3c2=O)-c2cccn21 [Compound 306a, 7-(Trifluoromethoxy)-9H-pyrrolizino[1,2-b]quinoline-9,10(4H)-dione] | 0.05 to 5 | 1 to 10 | 1 to 10 | 0.05 to 5 | 0.05 to 5 | 0.05 to 5 | 0.05 to 5 | 0.05 to 5 | 0.05 to 5
O=C1c2c(nc3ccc(OC(F)(F)F)cc3c2O)-c2cccn21 [Compound 306b, 9-hydroxy-7-(trifluoromethoxy)-10H-pyrrolizino[1,2-b]quinolin-10-one] | 0.05 to 5 | 1 to 10 | 0.1 to 1 | 0.05 to 5 | 0.05 to 5 | 0.05 to 5 | 0.05 to 5 | 0.05 to 5 | 0.05 to 5
O=C1c2c([nH]c3cc(N4CCNCC4)ccc3c2=O)-c2cccn21 [Compound 319a, 6-(piperazin-1-yl)-9H-pyrrolizino[1,2-b]quinoline-9,10(4H)-dione] | 0.05 to 5 | 1 to 10 | 1 to 10 | < 0.05 | 0.05 to 5 | 0.05 to 5 | 0.05 to 5 | 0.05 to 5 | 0.05 to 5
O=C1c2c(nc3cc(N4CCNCC4)ccc3c2O)-c2cccn21 [Compound 319b, 9-Hydroxy-6-(piperazin-1-yl)-10H-pyrrolizino[1,2-b]quinolin-10-one] | 0.05 to 5 | 1 to 10 | 1 to 10 | < 0.05 | 0.05 to 5 | 0.05 to 5 | 0.05 to 5 | 0.05 to 5 | 0.05 to 5

Now from value to compound, other results behind:

IC50 [2] [mM] | IC50 (NF-κB) [µM] | IC50 [6] [µM] | Structure (SMILES) | IC50 [1] [mM] | IC50 [3] [mM] | IC50 [4] [mM] | IC50 (BHK-21 cells) [mM] | IC50 [5] [mM] | IC50 [7] [mM]
0.05 to 5 | 1 to 10 | 1 to 10 | N#Cc1ccc2[nH]c3c(c(=O)c2c1)C(=O)n1cccc1-3 [Compound 222a, 9,10-Dioxo-4,10-dihydro-9H-pyrrolizino[1,2-b]quinoline-7-carbonitrile] | 0.05 to 5 | 0.05 to 5 | 0.05 to 5 | 0.05 to 5 | 0.05 to 5 | 0.05 to 5
0.05 to 5 | 1 to 10 | 1 to 10 | O=C1c2c([nH]c3ccc(Br)cc3c2=O)-c2cccn21 [Compound 246a, 7-Bromo-9H-pyrrolizino[1,2-b]quinoline-9,10(4H)-dione] | 0.05 to 5 | 0.05 to 5 | 0.05 to 5 | 5 to 20 | 0.05 to 5 | 0.05 to 5
0.05 to 5 | 1 to 10 | 1 to 10 | O=C(O)Cn1c2c(c(=O)c3cc(C(F)(F)F)ccc31)C(=O)n1cccc1-2 [Compound 279a, 2-(9,10-dioxo-7-(trifluoromethyl)-9H-pyrrolizino[1,2-b]quinolin-4(10H)-yl)acetic acid] | 0.05 to 5 | 0.05 to 5 | 0.05 to 5 | 0.05 to 5 | 0.05 to 5 | 0.05 to 5
0.05 to 5 | 0.1 to 1 | 1 to 10 | Cn1c2c(c(=O)c3ccc(N4CCNCC4)cc31)C(=O)n1cccc1-2 [Compound 328a, 4-Methyl-6-(piperazin-1-yl)-9H-pyrrolizino[1,2-b]quinoline-9,10(4H)-dione] | 0.05 to 5 | 0.05 to 5 | 0.05 to 5 | < 0.05 | 0.05 to 5 | 0.05 to 5
0.05 to 5 | 1 to 10 | 1 to 10 | COc1c2c(nc3cc(N4CCNCC4)ccc13)-c1cccn1C2=O [Compound 328b, 9-methoxy-6-(piperazin-1-yl)-10H-pyrrolizino[1,2-b]quinolin-10-one] | 0.05 to 5 | 0.05 to 5 | 0.05 to 5 | 0.05 to 5 | 0.05 to 5 | 0.05 to 5
0.05 to 5 | 1 to 10 | 1 to 10 | O=C1c2c([nH]c3c(Cl)cccc3c2=O)-c2cccn21 [Compound 443a, 5-Chloro-9H-pyrrolizino[1,2-b]quinoline-9,10(4H)-dione] | 0.05 to 5 | 0.05 to 5 | 0.05 to 5 | 0.05 to 5 | 0.05 to 5 | 0.05 to 5
